In PubChem BioAssay AID1845212 (Molecular Pharmacology Branch, DTP, NCI, 2023):

Test system: NCI-H719 tumor spheroids, viability
Assay: Anticancer human tumor NCI-H719 cell line growth inhibition;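 further: spheroids exposed to compounds for seven days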;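 on viability, T/C: percent viability relative to DMSO vehicle control as 100%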
Conditions: spheroids with HUVEC and MSC; for IC50: curve of first compound; for viability, T/C: stronger effect = lower value
Source text: Multicellular complex tumor spheroid response to DNA repair inhibitors in combination with DNA-damaging drugs
This study explores the anticancer activities of DNA-damaging drugs and inhibitors of DNA damage repair, both as single agents and in combinations. Complex tumor spheroids comprised of malignant cells, endothelial cells and mesenchymal stem cells served as an in vitro model for human solid tumors. This model system incorporates physiologically relevant features and patient-derived or established malignant cell lines with clinically relevant genetic alterations from many tumor types. Twenty-six patient-derived or established malignant cell lines were evaluated representing sarcoma, melanoma, small cell lung cancer (SCLC), non-small cell lung cancer (NSCLC), as well as bladder, ovarian and pancreatic cancers. The concentration ranges selected for each drug and investigational agent were based upon clinically achievable concentrations if the clinical Cmax of the agent was known.
Compounds. The drugs and compounds olaparib (NSC753686), talazoparib (NSC767125), berzosertib (NSC777718), elimusertib (NSC800525), nedisertib (NSC802822), VX-984 (NSC792969), AZD-1390 (NSC803789), temozolomide (NSC362856), topotecan (NSC609699), trabectedin (NSC813783), staurosporine (NSC755774), and gemcitabine (NSC613327) were obtained from the National Cancer Institute (NCI) Developmental Therapeutics Program Chemical Repository. The FDA-approved anticancer drug set is available from the Developmental Therapeutics Program at https://dtp.cancer.gov/organization/dscb/obtaining/available_plates.htm. […] The stock solutions were prepared in dimethyl sulfoxide (DMSO, Sigma-Aldrich, St. Louis, MO, cat. D2650) at 400-fold the tested concentration and stored at -70 degrees C. Prior to their use, the stock solutions were diluted in fresh medium and the final DMSO concentration in the assay was 0.25% (v/v). All drugs and investigational agents were tested over a range starting from a high concentration at or near the clinical Cmax and decreasing in half-log increments. If the clinical Cmax for an agent had not been determined, the highest concentration tested was 10 microM.
Cell Lines. The patient-derived cancer cell (PDC) lines: 156681-154-R-J1-PDC, 283228-195-R-J1-PDC, 287954-098-R-J1-PDC, 292921-168-R-J2-PDC, 349418-098-R-PDC, 425362-245-T-J1-PDC, 556581-035-R-J1-PDC, and BL0293-F563-PDC were received from the NCI Patient-Derived Models Repository (PDMR, https://pdmr.cancer.gov). The established cell lines HS-SY-2 (RRID:CVCL_8719), MPNST, and SYO-1 (RRID:CVCL_7146) were obtained from the Sloan Kettering Institute. The alveolar soft parts sarcoma cell line ASPS-1 (RRID:CVCL_S738) was established at the NCI and grown from internal seed stocks. The following established cell lines were purchased from the American Type Culture Collection (ATCC, Manassas, VA): G-401 (ATCC, cat. CRL-1441, RRID:CVCL_0270), SW982 (ATCC, cat. HTB-93, RRID:CVCL_1734), VA-ES-BJ (ATCC, cat. CRL-2138, RRID:CVCL_1785), NCI-H719 (ATCC, cat. CRL-5837, RRID:CVCL_1582), NCI-H196 (ATCC, cat. CRL-5823, RRID:CVCL_1509), NCI-H841 (ATCC, cat. CRL-5845, RRID:CVCL_1595), NCI-H1618 (ATCC, cat. CRL-5879, RRID:CVCL_1480), NCI-H1876 (ATCC, cat. CRL-5902, RRID:CVCL_1503), DMS 114 (ATCC, cat. CRL-2066; RRID:CVCL_1174), NCI-H211 (ATCC, cat. CRL-5824; RRID:CVCL_1529), and SW 1271 (ATCC, cat. CRL-2177, RRID:CVCL_1716). The small cell lung cancer cell line COR-L88 was purchased from Sigma-Aldrich (cat. 92031917-1VL, RRID:CVCL_1141). The non-small cell lung cancer cell lines NCI-H226 (RRID:CVCL_1544) and NCI-H322M (RRID:CVCL_1557) were established at the NCI and grown from internal seed stocks. Pooled donor human umbilical vein endothelial cells (HUVEC, Lonza, cat. CC-2519) and human mesenchymal stem cells (hMSC, Lonza, cat. PT-2501) were purchased from Lonza (Walkersville, MD).
Cell Culture. All cells were maintained in an incubator at 37 degrees C and 5% CO2 with 95% humidity. […]

[1] = second compound 0.003 µM, first compound 0.0949 µM
[2] = second compound 0.003 µM, first compound 0.3 µM
[3] = second compound 0.003 µM, first compound 0.949 µM
[4] = second compound 0.003 µM, first compound 3 µM
[5] = second compound 0.00949 µM, first compound 0.0949 µM
[6] = second compound 0.00949 µM, first compound 0.3 µM
[7] = second compound 0.00949 µM, first compound 0.949 µM
[8] = second compound 0.00949 µM, first compound 3 µM
[9] = second compound 0.03 µM, first compound 0.0949 µM
[10] = second compound 0.03 µM, first compound 0.3 µM
[11] = second compound 0.03 µM, first compound 0.949 µM
[12] = second compound 0.03 µM, first compound 3 µM
[13] = second compound 0.0949 µM, first compound 0.0949 µM
[14] = second compound 0.0949 µM, first compound 0.3 µM
[15] = second compound 0.0949 µM, first compound 0.949 µM
[16] = second compound 0.0949 µM, first compound 3 µM
[17] = second compound 0.3 µM, first compound 0.0949 µM
[18] = second compound 0.3 µM, first compound 0.3 µM
[19] = second compound 0.3 µM, first compound 0.949 µM
[20] = second compound 0.3 µM, first compound 3 µM

Row | Structure (SMILES) | IC50 (second compound 0.003 µM) [nM] | IC50 (second compound 0.00949 µM) [nM] | IC50 (second compound 0.03 µM) [nM] | IC50 (second compound 0.0949 µM) [nM] | IC50 (second compound 0.3 µM) [nM] | viability, T/C [1] [%] | viability, T/C [2] [%] | viability, T/C [3] [%] | viability, T/C [4] [%] | viability, T/C [5] [%] | viability, T/C [6] [%] | viability, T/C [7] [%] | viability, T/C [8] [%] | viability, T/C [9] [%] | viability, T/C [10] [%] | viability, T/C [11] [%] | viability, T/C [12] [%] | viability, T/C [13] [%] | viability, T/C [14] [%] | viability, T/C [15] [%] | further results
1 | Cn1ncnc1[C@H]1c2n[nH]c(=O)c3cc(F)cc(c23)N[C@@H]1c1ccc(F)cc1 + CC[C@@]1(O)C(=O)OCc2c1cc1n(c2=O)Cc2cc3c(CN(C)C)c(O)ccc3nc2-1 | < 9.49 | < 9.49 | < 9.49 | < 9.49 | < 9.49 | 5.99 | 5.19 | 4.99 | 5.85 | 5.47 | 5.57 | 5.5 | 6.37 | 4.9 | 5.13 | 5.61 | 6.6 | 6.09 | 5.95 | 5.66 | viability, T/C (second compound 0.003 µM, first compound 0.00949 µM): 5.32%; viability, T/C (second compound 0.003 µM, first compound 0.03 µM): 5.79%; viability, T/C (second compound 0.00949 µM, first compound 0.00949 µM): 5.81%; viability, T/C (second compound 0.00949 µM, first compound 0.03 µM): 5.54%; viability, T/C (second compound 0.03 µM, first compound 0.00949 µM): 5.15%; viability, T/C (second compound 0.03 µM, first compound 0.03 µM): 5.23%; viability, T/C (second compound 0.0949 µM, first compound 0.00949 µM): 5.2%; viability, T/C (second compound 0.0949 µM, first compound 0.03 µM): 5.29%; viability, T/C [16]: 7.03%; viability, T/C (second compound 0.3 µM, first compound 0.00949 µM): 5.56%; viability, T/C (second compound 0.3 µM, first compound 0.03 µM): 5.67%; viability, T/C [17]: 5.84%; viability, T/C [18]: 5.89%; viability, T/C [19]: 6.04%; viability, T/C [20]: 5.47%
2 | O=C(c1cc(Cc2n[nH]c(=O)c3ccccc23)ccc1F)N1CCN(C(=O)C2CC2)CC1 + CC[C@@]1(O)C(=O)OCc2c1cc1n(c2=O)Cc2cc3c(CN(C)C)c(O)ccc3nc2-1 | < 94.9 | < 94.9 | < 94.9 | < 94.9 | < 94.9 | 8.96 | 7.42 | 6.71 | 6.81 | 6.26 | 5.9 | 6.11 | 5.87 | 5.59 | 5.66 | 6.11 | 5.5 | 5.78 | 5.76 | 5.69 | viability, T/C (second compound 0.003 µM, first compound 9.49 µM): 5.81%; viability, T/C (second compound 0.003 µM, first compound 30 µM): 4.97%; viability, T/C (second compound 0.00949 µM, first compound 9.49 µM): 5.83%; viability, T/C (second compound 0.00949 µM, first compound 30 µM): 5.35%; viability, T/C (second compound 0.03 µM, first compound 9.49 µM): 5.9%; viability, T/C (second compound 0.03 µM, first compound 30 µM): 5.66%; viability, T/C [16]: 5.69%; viability, T/C (second compound 0.0949 µM, first compound 9.49 µM): 5.97%; viability, T/C (second compound 0.0949 µM, first compound 30 µM): 5.61%; viability, T/C [17]: 5.43%; viability, T/C [18]: 5.79%; viability, T/C [19]: 6.36%; viability, T/C [20]: 5.43%; viability, T/C (second compound 0.3 µM, first compound 9.49 µM): 5.25%; viability, T/C (second compound 0.3 µM, first compound 30 µM): 4.62%
